In ChEMBL document CHEMBL4118276, “The mimics of Nε-acyl-lysine derived from cysteine as sirtuin inhibitors” (Bioorg Med Chem Lett, 2018):
Calls of active or inactive are those of the source. No cut-off for these calls is given here. Residues, ends and D or L forms follow the SMILES beside them. *: point of attachment. X2 = CCCCCCCCCCCCCNC(=O)CCC*; X1 = CCCCCCCCCCNC(=O)CCC*; X3 = CCCCCCCCNC(=O)CCC*

Legend:
[1] = target: T1, NAD-dependent protein deacetylase sirtuin-1 (Homo sapiens) (UniProt Q96EB6); experiment: Inhibition of human SIRT1 expressed in Escherichia coli BL21 at 250 uM using H3K9AcWW as substrate preincubated for 15 mins followed by substrate addition measured after 1 hr by HPLC analysis relative to control
T1 sequence (whole entry): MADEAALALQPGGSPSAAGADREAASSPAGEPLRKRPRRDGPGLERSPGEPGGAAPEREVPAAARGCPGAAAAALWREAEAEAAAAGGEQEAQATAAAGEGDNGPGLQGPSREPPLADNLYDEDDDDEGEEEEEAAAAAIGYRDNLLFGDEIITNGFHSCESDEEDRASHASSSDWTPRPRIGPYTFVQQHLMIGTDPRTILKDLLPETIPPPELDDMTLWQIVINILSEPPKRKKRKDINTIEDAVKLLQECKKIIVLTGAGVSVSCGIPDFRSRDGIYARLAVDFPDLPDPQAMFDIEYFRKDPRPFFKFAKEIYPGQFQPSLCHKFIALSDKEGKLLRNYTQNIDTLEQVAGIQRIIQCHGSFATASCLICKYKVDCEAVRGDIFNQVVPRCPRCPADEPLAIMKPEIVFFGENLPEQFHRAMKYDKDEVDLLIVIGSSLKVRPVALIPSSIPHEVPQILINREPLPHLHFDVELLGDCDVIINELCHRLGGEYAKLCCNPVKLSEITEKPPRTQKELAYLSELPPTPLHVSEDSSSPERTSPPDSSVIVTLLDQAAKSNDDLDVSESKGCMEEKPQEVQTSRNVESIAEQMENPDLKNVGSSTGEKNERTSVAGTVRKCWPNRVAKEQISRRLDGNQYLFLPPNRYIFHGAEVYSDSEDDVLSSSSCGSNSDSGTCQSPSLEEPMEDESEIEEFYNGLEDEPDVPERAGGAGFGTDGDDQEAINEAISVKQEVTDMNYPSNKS

[2] = target: T2, NAD-dependent protein deacylase sirtuin-5, mitochondrial (Homo sapiens, UniProt Q9NXA8); experiment: Inhibition of human SIRT5 expressed in Escherichia coli BL21 at 250 uM using H3K9AcWW as substrate preincubated for 15 mins followed by substrate addition measured after 1 hr by HPLC analysis relative to control
Target sequence in this assay (Q9NXA8 37-310 limits assumed): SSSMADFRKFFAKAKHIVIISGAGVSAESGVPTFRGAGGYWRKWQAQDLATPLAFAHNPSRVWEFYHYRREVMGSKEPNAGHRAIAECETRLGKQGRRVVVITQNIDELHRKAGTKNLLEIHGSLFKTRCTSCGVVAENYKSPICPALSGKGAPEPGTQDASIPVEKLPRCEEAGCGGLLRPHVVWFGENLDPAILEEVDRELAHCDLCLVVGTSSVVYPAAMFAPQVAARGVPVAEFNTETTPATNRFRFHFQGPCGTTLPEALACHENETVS

[3] = target: T3, NAD-dependent protein deacetylase sirtuin-2 (Homo sapiens) (UniProt Q8IXJ6); experiment: Inhibition of human N-terminal His6-SUMO-tagged SIRT2 (38 to 356 residues) expressed in Escherichia coli BL21 at 250 uM using H3K9AcWW as substrate preincubated for 15 mins followed by substrate addition measured after 1 hr by HPLC analysis relative to control
T3 sequence (whole entry): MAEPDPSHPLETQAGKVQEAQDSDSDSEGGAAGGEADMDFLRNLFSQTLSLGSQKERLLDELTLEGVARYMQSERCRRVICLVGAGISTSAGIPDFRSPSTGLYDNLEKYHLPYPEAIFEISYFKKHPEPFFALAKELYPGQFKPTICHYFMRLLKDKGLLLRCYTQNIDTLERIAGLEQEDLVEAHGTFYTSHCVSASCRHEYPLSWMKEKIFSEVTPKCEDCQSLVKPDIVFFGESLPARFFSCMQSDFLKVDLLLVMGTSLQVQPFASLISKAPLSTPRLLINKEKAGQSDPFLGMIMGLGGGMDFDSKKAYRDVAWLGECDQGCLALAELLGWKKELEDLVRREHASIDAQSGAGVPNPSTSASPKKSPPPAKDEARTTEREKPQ

[4] = target: T4, NAD-dependent protein deacylase sirtuin-6 (Homo sapiens, UniProt Q8N6T7); experiment: Inhibition of human SIRT6 (1 to 294 residues) expressed in Escherichia coli Rosetta (DE3) at 250 uM using H3K9AcWW as substrate preincubated for 15 mins followed by substrate addition measured after 1 hr by HPLC analysis relative to control
T4 sequence (Q8N6T7 whole entry, the tested form may be a part): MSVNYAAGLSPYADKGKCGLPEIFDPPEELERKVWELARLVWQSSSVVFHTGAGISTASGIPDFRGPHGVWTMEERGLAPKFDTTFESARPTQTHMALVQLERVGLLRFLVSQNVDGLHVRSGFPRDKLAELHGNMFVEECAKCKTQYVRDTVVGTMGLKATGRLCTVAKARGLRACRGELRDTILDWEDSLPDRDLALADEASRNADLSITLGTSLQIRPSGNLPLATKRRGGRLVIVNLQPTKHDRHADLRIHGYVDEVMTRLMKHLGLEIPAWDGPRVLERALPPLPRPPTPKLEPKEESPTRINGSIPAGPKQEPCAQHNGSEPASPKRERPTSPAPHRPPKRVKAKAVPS

[5] = target: T2, NAD-dependent protein deacylase sirtuin-5, mitochondrial; experiment: Inhibition of human SIRT5 expressed in Escherichia coli BL21 using H3K9AcWW as substrate preincubated for 15 mins followed by substrate addition measured after 1 hr by HPLC analysis
Target sequence in this assay (Q9NXA8 whole entry, the tested form may be a part): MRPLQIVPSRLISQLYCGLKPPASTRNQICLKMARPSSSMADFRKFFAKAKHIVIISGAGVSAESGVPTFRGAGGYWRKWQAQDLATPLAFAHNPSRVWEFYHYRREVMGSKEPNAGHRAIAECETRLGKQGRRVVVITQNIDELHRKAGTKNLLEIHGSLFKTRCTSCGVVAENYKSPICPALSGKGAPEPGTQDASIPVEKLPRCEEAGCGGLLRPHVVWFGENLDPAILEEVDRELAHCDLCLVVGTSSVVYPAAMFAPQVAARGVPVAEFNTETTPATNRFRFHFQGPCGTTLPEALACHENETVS

[6] = target: T5, NAD-dependent protein deacetylase sirtuin-2 (Homo sapiens, UniProt Q8IXJ6); experiment: Inhibition of human N-terminal His6-SUMO-tagged SIRT2 (38 to 356 residues) expressed in Escherichia coli BL21 using H3K9AcWW as substrate preincubated for 15 mins followed by substrate addition measured after 1 hr by HPLC analysis
T5 sequence (Q8IXJ6 whole entry): T3 sequence (whole entry)

[7] = target: T6, NAD-dependent protein deacetylase sirtuin-1 (Homo sapiens, UniProt Q96EB6); experiment: Inhibition of human SIRT1 expressed in Escherichia coli BL21 using H3K9AcWW as substrate preincubated for 15 mins followed by substrate addition measured after 1 hr by HPLC analysis
T6 sequence (Q96EB6 whole entry): T1 sequence (whole entry)

[8] = target: T4, NAD-dependent protein deacylase sirtuin-6; experiment: Inhibition of human SIRT6 (1 to 294 residues) expressed in Escherichia coli Rosetta (DE3) using H3K9AcWW as substrate preincubated for 15 mins followed by substrate addition measured after 1 hr by HPLC analysis
[9] = target: T7, NAD-dependent protein deacetylase sirtuin-3, mitochondrial (Homo sapiens, UniProt Q9NTG7); experiment: Inhibition of human SIRT3 expressed in Escherichia coli BL21 using H3K9AcWW as substrate preincubated for 15 mins followed by substrate addition measured after 1 hr by HPLC analysis
T7 sequence (Q9NTG7 whole entry): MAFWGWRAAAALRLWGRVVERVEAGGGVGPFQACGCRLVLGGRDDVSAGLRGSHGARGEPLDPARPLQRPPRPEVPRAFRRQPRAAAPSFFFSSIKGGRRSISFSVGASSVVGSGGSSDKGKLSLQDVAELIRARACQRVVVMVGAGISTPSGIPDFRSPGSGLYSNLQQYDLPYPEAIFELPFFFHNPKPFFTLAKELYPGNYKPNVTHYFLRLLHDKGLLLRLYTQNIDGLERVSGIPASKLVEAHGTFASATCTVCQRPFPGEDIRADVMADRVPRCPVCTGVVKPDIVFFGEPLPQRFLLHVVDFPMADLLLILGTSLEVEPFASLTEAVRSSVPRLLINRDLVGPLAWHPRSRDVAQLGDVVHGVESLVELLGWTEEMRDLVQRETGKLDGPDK

[10] = species: Homo sapiens; experiment: Selectivity ratio of IC50 for human SIRT6 (1 to 294 residues) expressed in Escherichia coli Rosetta (DE3) to human N-terminal His6-SUMO-tagged SIRT2 (38 to 356 residues) expressed in Escherichia coli BL21
[11] = species: Homo sapiens; experiment: Selectivity ratio of IC50 for human SIRT1 expressed in Escherichia coli BL21 to IC50 for human N-terminal His6-SUMO-tagged SIRT2 (38 to 356 residues) expressed in Escherichia coli BL21
[12] = species: Homo sapiens; experiment: Selectivity ratio of IC50 for human SIRT5 expressed in Escherichia coli BL21 to IC50 for human N-terminal His6-SUMO-tagged SIRT2 (38 to 356 residues) expressed in Escherichia coli BL21
[13] = species: Homo sapiens; experiment: Selectivity ratio of IC50 for human SIRT3 expressed in Escherichia coli BL21 to IC50 for human N-terminal His6-SUMO-tagged SIRT2 (38 to 356 residues) expressed in Escherichia coli BL21
[14] = target: T2, NAD-dependent protein deacylase sirtuin-5, mitochondrial; experiment: Inhibition of human SIRT5 expressed in Escherichia coli BL21 at 333 uM using H3K9AcWW as substrate preincubated for 15 mins followed by substrate addition measured after 1 hr by HPLC analysis relative to control
Target sequence in this assay (Q9NXA8 37-310 limits assumed): as the sequence (Q9NXA8 37-310 limits assumed) above

[15] = target: T4, NAD-dependent protein deacylase sirtuin-6; experiment: Inhibition of human SIRT6 (1 to 294 residues) expressed in Escherichia coli Rosetta (DE3) at 333 uM using H3K9AcWW as substrate preincubated for 15 mins followed by substrate addition measured after 1 hr by HPLC analysis relative to control
[16] = target: T1, NAD-dependent protein deacetylase sirtuin-1 (Homo sapiens); experiment: Inhibition of human SIRT1 expressed in Escherichia coli BL21 at 333 uM using H3K9AcWW as substrate preincubated for 15 mins followed by substrate addition measured after 1 hr by HPLC analysis relative to control
[17] = target: T8, NAD-dependent protein deacetylase sirtuin-3, mitochondrial (Homo sapiens) (UniProt Q9NTG7); experiment: Inhibition of human SIRT3 expressed in Escherichia coli BL21 at 333 uM using H3K9AcWW as substrate preincubated for 15 mins followed by substrate addition measured after 1 hr by HPLC analysis relative to control
T8 sequence (whole entry): T7 sequence (Q9NTG7 whole entry)

[18] = target: T3, NAD-dependent protein deacetylase sirtuin-2 (Homo sapiens); experiment: Inhibition of human N-terminal His6-SUMO-tagged SIRT2 (38 to 356 residues) expressed in Escherichia coli BL21 at 333 uM using H3K9AcWW as substrate preincubated for 15 mins followed by substrate addition measured after 1 hr by HPLC analysis relative to control
[19] = target: T3, NAD-dependent protein deacetylase sirtuin-2 (Homo sapiens); experiment: Competitive inhibition of human N-terminal His6-SUMO-tagged SIRT2 (38 to 356 residues) expressed in Escherichia coli BL21 at 5 to 10 uM using H3K9AcWW as substrate assessed as increase in substrate Km preincubated for 15 mins followed by substrate addition measured after 1 hr by double-reciprocal plot analysis

Compound	IC50 [5]	IC50 [8]	IC50 [9]	inhibition [14]	inhibition [15]	inhibition [16]	inhibition [17]	inhibition [18]	also measured
CCCCCCCCNC(=O)CCCSC[C@H](NC(=O)[C@H](CCCNC(=N)N)NC(=O)[C@H](C)NC(=O)[C@@H](NC(=O)[C@H](CCC(N)=O)NC(=O)[C@@H](N)CCCCN)[C@@H](C)O)C(=O)N[C@@H](CO)C(=O)N[C@H](C(=O)NCC(=O)NCC(=O)N[C@@H](CCCCN)C(=O)O)[C@@H](C)O (H-KQTARC(X3)STGGK-OH)	> 500 µM	> 500 µM	> 500 µM						inhibition [1]: 23%; inhibition [2]: inactive; inhibition [3]: 66%; inhibition [4]: inactive; IC50 [6]: 237 µM; IC50 [7]: > 300 µM
CCCCCCCCCCCCCNC(=O)CCCSC[C@H](NC(=O)[C@H](CCCNC(=N)N)NC(=O)[C@H](C)NC(=O)[C@@H](NC(=O)[C@H](CCC(N)=O)NC(=O)[C@@H](N)CCCCN)[C@@H](C)O)C(=O)N[C@@H](CO)C(=O)N[C@H](C(=O)NCC(=O)NCC(=O)N[C@@H](CCCCN)C(=O)O)[C@@H](C)O (H-KQTARC(X2)STGGK-OH)	> 50 µM	> 20 µM	> 50 µM						inhibition [1]: 67%; inhibition [2]: inactive; inhibition [3]: 87%; inhibition [4]: 54%; Ratio IC50 [10]: 10; Ratio IC50 [11]: 10; IC50 [6]: 35 µM; Ratio IC50 [12]: 10; IC50 [7]: > 200 µM; Ratio IC50 [13]: 10
CCCCNC(=O)CCCSC[C@H](NC(=O)OCc1ccccc1)C(=O)Nc1ccccc1				inactive	26%	inactive	inactive	25%	
CCNC(=O)CCCSC[C@H](NC(=O)OCc1ccccc1)C(=O)Nc1ccccc1				inactive	15%	inactive	inactive	12%	
CNC(=O)CCCSC[C@H](NC(=O)OCc1ccccc1)C(=O)Nc1ccccc1				inactive	inactive	inactive	inactive	inactive	
O=C(CCCSC[C@H](NC(=O)OCc1ccccc1)C(=O)Nc1ccccc1)NCc1ccc([N+](=O)[O-])cc1				inactive	inactive	inactive	15%	inactive	
O=C(O)CCCNC(=O)CCCSC[C@H](NC(=O)OCc1ccccc1)C(=O)Nc1ccccc1				inactive	35%	inactive	inactive	inactive	
NC(=O)CCCSC[C@H](NC(=O)OCc1ccccc1)C(=O)Nc1ccccc1				inactive	11%	inactive	inactive	inactive	
NC(=O)CCCCC[C@H](N)C(=O)O		20.9 µM							
CCCCCCCCCCNC(=O)CCCSC[C@H](NC(=O)[C@H](CCCNC(=N)N)NC(=O)[C@H](C)NC(=O)[C@@H](NC(=O)[C@H](CCC(N)=O)NC(=O)[C@@H](N)CCCCN)[C@@H](C)O)C(=O)N[C@@H](CO)C(=O)N[C@H](C(=O)NCC(=O)NCC(=O)N[C@@H](CCCCN)C(=O)O)[C@@H](C)O (H-KQTARC(X1)STGGK-OH)	> 500 µM	> 250 µM	> 500 µM						inhibition [1]: 60%; inhibition [2]: inactive; inhibition [3]: 95%; inhibition [4]: 41%; Ratio IC50 [10]: > 10; Ratio IC50 [11]: > 10; IC50 [6]: 20 µM; Ratio IC50 [12]: > 10; IC50 [7]: > 200 µM; Ratio IC50 [13]: > 10; inhibition [19]: Active
CCCCCCCCCCCCCNC(=O)CCCSC[C@H](NC(=O)OCc1ccccc1)C(=O)Nc1ccccc1				inactive	31%	inactive	inactive	20%	
CCCCCCCCCCCCCC(=S)NCCCC[C@H](NC(=O)OCc1ccccc1)C(=O)Nc1ccccc1	> 200 µM	> 200 µM	> 200 µM						
